Laboratory results: US10696691B2, “BACE1 inhibitors” (Hoffmann-La Roche Inc., priority 2015, dated 2020)

The compounds below were run against T1, BACE1 (Homo sapiens, UniProt P56817) (assay: Cellular Aβ-lowering assay (Abeta 40 AlphaLISA, HEK293 APP cells)). Details: 18-20 hrs incubation, Aβ 40 in culture supernatants, read-out: BACE1 cell act. Aβ40 IC50.
T1 construct: endogenous in cells; host or cells: HEK293 APP cells
T1 sequence (P56817 46-501): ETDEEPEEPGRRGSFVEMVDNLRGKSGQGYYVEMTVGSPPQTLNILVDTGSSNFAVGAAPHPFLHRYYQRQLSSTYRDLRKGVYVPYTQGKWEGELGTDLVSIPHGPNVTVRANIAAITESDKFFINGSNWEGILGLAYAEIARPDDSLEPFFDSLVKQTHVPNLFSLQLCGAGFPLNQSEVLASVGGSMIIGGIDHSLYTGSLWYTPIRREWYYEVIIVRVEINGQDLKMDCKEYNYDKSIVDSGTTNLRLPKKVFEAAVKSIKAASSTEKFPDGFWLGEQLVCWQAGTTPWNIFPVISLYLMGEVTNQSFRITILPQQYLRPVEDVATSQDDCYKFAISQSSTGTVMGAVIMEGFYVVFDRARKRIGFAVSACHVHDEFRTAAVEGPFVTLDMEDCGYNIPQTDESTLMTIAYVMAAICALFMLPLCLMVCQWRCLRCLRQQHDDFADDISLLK
Type: cell-based
Description: Cellular Aβ-Lowering Assay:
The Abeta 40 AiphaLISA Assay can be used. The HEK293 APP cells were seeded in 96 well Microtiter plates in cell culture medium (Iscove's, plus 10% (v/v) fetal bovine serum, penicillin/streptomycin) to about 80% confluency and the compounds were added at a 3× concentration in ⅓ volume of culture medium (final DMSO concentration was kept at 1% v/v). After 18-20 hrs incubation at 37° C. and 5% CO2 in a humidified incubator, the culture supernatants were harvested for the determination of Aβ 40 concentrations using Perkin-Elmer Human Amyloid beta 1-40 (high specificity) Kit (Cat # AL275C).
In a Perkin-Elmer White Optiplate-384 (Cat #6007290), 2 ul culture supernatants were combined with 2 μl of a 10× AlphaLISA Anti-hABAcceptor beads+Biotinylated Antibody Anti-AD 1-40 Mix (50 μg/mL/5 nM). After 1 hour room temperature incubation, 16 μl of a 1.25× preparation of Streptavidin (SA) Donor beads (25 μg/mL) were added and incubated for 30 minutes in the Dark. Light Emission at 615 nm was then recorded using EnVision-Alpha Reader. Levels of Aβ 40 in the culture supernatants were calculated as percentage of maximum signal (cells treated with 1% DMSO without inhibitor). The IC50 values were calculated using the Excel XLfit software.
`Cc1cnc(C(=O)Nc2ccc(F)c([C@@]3(C)N=C(N)C(C)(C)[S@@]4(=O)=NCC[C@@H]34)c2)c(C)c1` [Example 23AB, N-(3-((3aS,4R,8R)-6-amino-4,7,7-trimethyl-8-oxido-3,3a,4,7-tetrahydro-2H-isothiazolo[1,5-a][1,4]thiazin-4-yl)-4-fluorophenyl)-3,5-dimethylpicolinamide] showed an IC50 of 200 pM.
Compound `Cc1ncc(C(=O)Nc2ccc(F)c([C@@]3(C)N=C(N)C(C)(C)[S@@]4(=O)=NCC[C@@H]34)c2)cn1` [Example 21AB, N-(3-((3aS,4R,8R)-6-amino-4,7,7-trimethyl-8-oxido-3,3a,4,7-tetrahydro-2H-isothiazolo[1,5-a][1,4]thiazin-4-yl)-4-fluorophenyl)-2-methylpyrimidine-5-carboxamide] has an IC50 of 914000 pM.
`CC1(C)C(N)=N[C@](C)(c2cc(NC(=O)c3cnc(OCC(F)F)cn3)ccc2F)[C@@H]2CCN=[S@@]21=O` [Example 7AB, N-(3-((3aS,4R,8R)-6-amino-4,7,7-trimethyl-8-oxido-3,3a,4,7-tetrahydro-2H-isothiazolo[1,5-a][1,4]thiazin-4-yl)-4-fluorophenyl)-5-(2,2-difluoroethoxy)pyrazine-2-carboxamide] showed an IC50 of 400 pM.
With `Cc1cc(C#N)cnc1C(=O)Nc1ccc(F)c([C@@]2(C)N=C(N)C(C)(C)[S@]3(=O)=NCC[C@H]23)c1` [Example 1BA, N-(3-((3aR,4R,8S)-6-amino-4,7,7-trimethyl-8-oxido-3,3a,4,7-tetrahydro-2H-isothiazolo[1,5-a][1,4]thiazin-4-yl)-4-fluorophenyl)-5-cyano-3-methylpicolinamide] the IC50 was 3600 pM.
With `CC1(C)C(N)=N[C@](C)(c2cc(NC(=O)c3ncc(Cl)cc3Cl)ccc2F)[C@@H]2CCN=[S@@]21=O` [Example 3AB, N-(3-((3aS,4R,8R)-6-amino-4,7,7-trimethyl-8-oxido-3,3a,4,7-tetrahydro-2H-isothiazolo[1,5-a][1,4]thiazin-4-yl)-4-fluorophenyl)-3,5-dichloropicolinamide] the IC50 was 1000 pM.
In the case of `CC1(C)C(N)=N[C@](C)(c2cc(NC(=O)c3ncc(C(F)(F)F)cc3Cl)ccc2F)[C@@H]2CCN=[S@@]21=O` [Example 8AB, N-(3-((3aS,4R,8R)-6-amino-4,7,7-trimethyl-8-oxido-3,3a,4,7-tetrahydro-2H-isothiazolo[1,5-a][1,4]thiazin-4-yl)-4-fluorophenyl)-3-chloro-5-(trifluoromethyl)picolinamide], the IC50 is reported as 300 pM.
`CC1(C)C(N)=N[C@](C)(c2cc(NC(=O)c3ccc(Cl)cn3)ccc2F)[C@@H]2CCN=[S@@]21=O` [Example 18AB, N-(3-((3aS,4R,8R)-6-amino-4,7,7-trimethyl-8-oxido-3,3a,4,7-tetrahydro-2H-isothiazolo[1,5-a][1,4]thiazin-4-yl)-4-fluorophenyl)-5-chloropicolinamide] showed an IC50 of 200 pM.
With `COc1ccc(C(=O)Nc2ccc(F)c([C@@]3(C)N=C(N)C(C)(C)[S@@]4(=O)=NCC[C@@H]34)c2)nc1` [Example 24AB, N-(3-((3aS,4R,8R)-6-amino-4,7,7-trimethyl-8-oxido-3,3a,4,7-tetrahydro-2H-isothiazolo[1,5-a][1,4]thiazin-4-yl)-4-fluorophenyl)-5-methoxypicolinamide] the IC50 was 700 pM.
`CC1(C)C(N)=N[C@](C)(c2cc(NC(=O)c3ccc(OC(F)F)cn3)ccc2F)[C@@H]2CCN=[S@@]21=O` [Example 5AB, N-(3-((3aS,4R,8R)-6-amino-4,7,7-trimethyl-8-oxido-3,3a,4,7-tetrahydro-2H-isothiazolo[1,5-a][1,4]thiazin-4-yl)-4-fluorophenyl)-5-(difluoromethoxy)picolinamide] was tested, and the IC50 was 600 pM.
`CC1(C)C(N)=N[C@](C)(c2cc(NC(=O)c3nn(C(F)F)cc3Cl)ccc2F)[C@@H]2CCN=[S@@]21=O` [Example 6AB, N-(3-((3aS,4R,8R)-6-amino-4,7,7-trimethyl-8-oxido-3,3a,4,7-tetrahydro-2H-isothiazolo[1,5-a][1,4]thiazin-4-yl)-4-fluorophenyl)-4-chloro-1-(difluoromethyl)-1H-pyrazole-3-carboxamide] gave an IC50 of 1100 pM.
Compound `Cc1cc(OC(F)F)cnc1C(=O)Nc1ccc(F)c([C@@]2(C)N=C(N)C(C)(C)[S@@]3(=O)=NCC[C@@H]23)c1` [Example 11AB, N-(3-((3aS,4R,8R)-6-amino-4,7,7-trimethyl-8-oxido-3,3a,4,7-tetrahydro-2H-isothiazolo[1,5-a][1,4]thiazin-4-yl)-4-fluorophenyl)-5-(difluoromethoxy)-3-methylpicolinamide] has an IC50 of 200 pM.
`CC1(C)C(N)=N[C@](C)(c2cc(NC(=O)c3ccc(C#N)cn3)ccc2F)[C@@H]2CCN=[S@@]21=O` [Example 16AB, N-(3-((3aS,4R,8R)-6-amino-4,7,7-trimethyl-8-oxido-3,3a,4,7-tetrahydro-2H-isothiazolo[1,5-a][1,4]thiazin-4-yl)-4-fluorophenyl)-5-cyanopicolinamide] showed an IC50 of 200 pM.
For `Cc1cc(C#N)ccc1C(=O)Nc1ccc(F)c([C@@]2(C)N=C(N)C(C)(C)[S@@]3(=O)=NCC[C@@H]23)c1` [Example 9AB, N-(3-((3aS,4R,8R)-6-amino-4,7,7-trimethyl-8-oxido-3,3a,4,7-tetrahydro-2H-isothiazolo[1,5-a][1,4]thiazin-4-yl)-4-fluorophenyl)-4-cyano-2-methylbenzamide], the IC50 was 12300 pM.
`CC1(C)C(N)=N[C@](C)(c2cc(NC(=O)c3ccc(OCC(F)F)cn3)ccc2F)[C@@H]2CCN=[S@@]21=O` [Example 10AB, N-(3-((3aS,4R,8R)-6-amino-4,7,7-trimethyl-8-oxido-3,3a,4,7-tetrahydro-2H-isothiazolo[1,5-a][1,4]thiazin-4-yl)-4-fluorophenyl)-5-(2,2-difluoroethoxy)picolinamide] showed an IC50 of 2200 pM.
`Cc1ccc(C(=O)Nc2ccc(F)c([C@@]3(C)N=C(N)C(C)(C)[S@@]4(=O)=NCC[C@@H]34)c2)nc1` [Example 20AB, N-(3-((3aS,4R,8R)-6-amino-4,7,7-trimethyl-8-oxido-3,3a,4,7-tetrahydro-2H-isothiazolo[1,5-a][1,4]thiazin-4-yl)-4-fluorophenyl)-5-methylpicolinamide] was tested, and the IC50 was 400 pM.
In the case of `CC1(C)C(N)=N[C@](C)(c2cc(NC(=O)c3ncc(F)cc3F)ccc2F)[C@@H]2CCN=[S@@]21=O` [Example 19AB, N-(3-((3aS,4R,8R)-6-amino-4,7,7-trimethyl-8-oxido-3,3a,4,7-tetrahydro-2H-isothiazolo[1,5-a][1,4]thiazin-4-yl)-4-fluorophenyl)-3,5-difluoropicolinamide], the IC50 is reported as 1300 pM.
`CC1(C)C(N)=N[C@](C)(c2cc(NC(=O)c3ccc(OCC(F)(F)C(F)F)cn3)ccc2F)[C@@H]2CCN=[S@@]21=O` [Example 12AB, N-(3-((3aS,4R,8R)-6-amino-4,7,7-trimethyl-8-oxido-3,3a,4,7-tetrahydro-2H-isothiazolo[1,5-a][1,4]thiazin-4-yl)-4-fluorophenyl)-5-(2,2,3,3-tetrafluoropropoxy)picolinamide] gave an IC50 of 1400 pM.

What follows are compounds tested on Aβ40 (assay: Lowering of Aβ40 in brain of wild-type mice). Details: Mus musculus, po; female C57Bl/6J mice, 30 mg/kg per os, 4 h; brain Aβ40 as percentage of the vehicle group; read-out: Aβ40 (wt mice, brain).
Type: in vivo
Description: Lowering of Aβ40 in Brain of Wild-Type Mice:
Animals and Housing Conditions.
Animals were maintained in a 12/12 h light/dark cycle, with lights starting at 6 a.m., and experiments were conducted during the light phase, Animal housing and experimental procedures were in line with ethical and legal guidelines and were authorized by local veterinary authorities.
Female C57Bl/6J mice were treated with a dose of 30 mg/kg of the compounds, 3-4 animals per treatment group. The test compound was dissolved in 5% EtOH, 10% Solutol, and was applied per os at 10 mL/kg. After 4 h, the animals were sacrificed and brain and plasma were collected. The brain was cut into halves and immediately frozen on dry ice. Brain was used for measurement of Aβ40 and plasma was used for determination of compound exposure. […] Brain tissue was homogenized in 2% DEA buffer in a Roche MagnaLyser (20″, 4000 rpm) and subsequently centrifuged for 1 h at 100000 g. DEA was reduced to 0.2% in 50 mM NaCl and one-half of the DEA lysate was passed over an Oasis Solid phase extraction plate (Waters; cat. no. 186000679), which had been activated with MeOH and equilibrated in dH2O (1 mL each). After washes in 10% and 30% MeOH (1 mL each), the Aβ-peptides were eluted in 0.8 mL of 2% NH4OH in 90% MeOH. The eluate was dried over a N2 flow, and the dried sample was reconstituted in 30 μL of AlphaLISA assay buffer. Aβ40 was determined by an AlphaLISA assay (Perkin-Elmer). In a white 96-well, half area microplate (Perkin-Elmer cat. no. 6005561), 20 μL of the reconstituted sample were mixed with 5 μL of biotinylated BAP-24 (specific for C-terminus of Aβ40) (Brockhaus, M.; Onmberg, J.; Rohrig, S.; Loetscher, H.; Wittenburg, N.; Baumeister, R.; Jacobsen, H.; Haass, C. Caspasemediated cleavage is not required for the activity of presenilins in amyloidogenesis and NOTCH signaling. NeuroReport 1998, 9, 1481-1486.) stock=4.4 mg/mL, f.c.5.5 μg/mL), and 5 μL 252Q6 acceptor beads (252Q6 antibody, Invitrogen AMB0062) had been previously conjugated with AlphaLISA Acceptor beads (Perkin-Elmer cat. no. 6772002); final dilution 1:500). The mix was incubated for 1 h at RT in the dark. Then 20 μL of Streptavin-coated Donor Beads (Perkin-Elmer cat. no. 6760002, final dilution 1:125) were added and this final mix was incubated in the dark for another 30 min at RT before RFU was measured in an AlphaScreen Reader (Perkin-Elmer Envision 2104). The value obtained for A40 in the treated animals was related to the value in the vehicle group and is given in %. Alternatively a commercial ELISA was used for Aβ40 determination (Wako ELISA: (“Human/Rat 3 Amyloid (40) ELISA kit Wako II”; cat nr. 294-64701) following the manufacture's instruction. Also here the Aβ-lowering efficacy was calculated as percentage of the vehicle group.
`CC1(C)C(N)=N[C@](C)(c2cc(NC(=O)c3cnc(OCC(F)F)cn3)ccc2F)[C@@H]2CCN=[S@@]21=O` [Example 7AB, N-(3-((3aS,4R,8R)-6-amino-4,7,7-trimethyl-8-oxido-3,3a,4,7-tetrahydro-2H-isothiazolo[1,5-a][1,4]thiazin-4-yl)-4-fluorophenyl)-5-(2,2-difluoroethoxy)pyrazine-2-carboxamide] was tested, and the response vs control in vivo at 30 mg/kg was 42%.
Compound `Cc1cc(C#N)cnc1C(=O)Nc1ccc(F)c([C@@]2(C)N=C(N)C(C)(C)[S@]3(=O)=NCC[C@H]23)c1` [Example 1BA, N-(3-((3aR,4R,8S)-6-amino-4,7,7-trimethyl-8-oxido-3,3a,4,7-tetrahydro-2H-isothiazolo[1,5-a][1,4]thiazin-4-yl)-4-fluorophenyl)-5-cyano-3-methylpicolinamide] has a response vs control in vivo at 30 mg/kg of 73%.
For `CC1(C)C(N)=N[C@](C)(c2cc(NC(=O)c3ncc(Cl)cc3Cl)ccc2F)[C@@H]2CCN=[S@@]21=O` [Example 3AB, N-(3-((3aS,4R,8R)-6-amino-4,7,7-trimethyl-8-oxido-3,3a,4,7-tetrahydro-2H-isothiazolo[1,5-a][1,4]thiazin-4-yl)-4-fluorophenyl)-3,5-dichloropicolinamide], the response vs control in vivo at 30 mg/kg was 49%.
